Data from patent publication US6703536B2, “Disposable absorbent article having a skin care composition containing an enzyme inhibitor” (The Procter & Gamble Company, priority 1998, dated 2004).
Structures can show the parent of a compound that is named as a salt. Where two headings read alike, the source gives them in different places. Values belong to the molecule of their own block, whether it stands above or below them. Square brackets hold non-standard residues; d marks the D form. Peptide text beside a SMILES is read from it. * marks the point of attachment. Sta = CC(C)C[C@H](N)[C@@H](O)CC(=O)O; Isovaleryl = CC(C)CC(=O)*

Experiments:
[1] = target: T1, purified leucine aminopeptidase (LAP) (Sus scrofa, UniProt P15145); experiment: Purified Leucine Aminopeptidase Activity (Purified Enzyme Method); assay type: biochemical
T1 construct: purchased Sigma, St. Louis, Mo; L5006
T1 sequence (P15145 1-963): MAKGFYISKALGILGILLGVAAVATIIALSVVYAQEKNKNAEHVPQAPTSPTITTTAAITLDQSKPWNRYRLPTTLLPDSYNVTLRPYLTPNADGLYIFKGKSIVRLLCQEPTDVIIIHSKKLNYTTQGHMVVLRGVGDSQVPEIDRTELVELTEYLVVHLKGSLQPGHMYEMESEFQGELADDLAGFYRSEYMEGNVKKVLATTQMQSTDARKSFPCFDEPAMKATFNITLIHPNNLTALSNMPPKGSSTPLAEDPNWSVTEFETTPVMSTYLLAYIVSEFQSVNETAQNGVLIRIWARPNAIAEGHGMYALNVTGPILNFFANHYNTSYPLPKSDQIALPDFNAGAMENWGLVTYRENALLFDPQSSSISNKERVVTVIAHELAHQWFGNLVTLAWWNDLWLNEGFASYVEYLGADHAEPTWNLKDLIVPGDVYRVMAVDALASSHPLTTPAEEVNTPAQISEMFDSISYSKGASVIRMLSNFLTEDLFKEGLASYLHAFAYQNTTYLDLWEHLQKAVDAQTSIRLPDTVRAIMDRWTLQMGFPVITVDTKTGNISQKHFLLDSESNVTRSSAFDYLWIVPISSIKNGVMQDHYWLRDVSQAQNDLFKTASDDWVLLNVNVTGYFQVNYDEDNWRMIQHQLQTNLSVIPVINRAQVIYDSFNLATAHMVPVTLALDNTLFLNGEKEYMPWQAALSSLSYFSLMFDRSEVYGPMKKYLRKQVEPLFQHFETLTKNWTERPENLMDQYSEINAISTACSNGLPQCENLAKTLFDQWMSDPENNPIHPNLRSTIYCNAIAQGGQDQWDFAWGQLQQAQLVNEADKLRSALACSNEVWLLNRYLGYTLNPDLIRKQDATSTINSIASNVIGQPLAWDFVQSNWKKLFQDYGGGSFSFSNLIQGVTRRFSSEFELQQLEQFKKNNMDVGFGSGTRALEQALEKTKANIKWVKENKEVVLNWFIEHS
Protocol: The IC50 is calculated according to the equation IC50=[I]/[(v/vi)−1], where [I] is the inhibitor concentration tested, v is the rate of substrate cleavage in the absence of the inhibitor and vi is the rate of substrate cleavage in the presence of the inhibitor. As described further below, the IC50 of an enzyme inhibitor according to the invention may be measured by a Purified Enzyme method, by a Specific Fecal Enzyme method or by a General Fecal Enzymes method.
Standard in vitro assays for enzyme activity, and inhibition of enzyme activity, are well known. The reagents used to conduct these tests are generally commercially available. In general, a simple system comprises an enzyme-specific substrate which, when hydrolyzed by the enzyme, produces a colored product. The activity of the enzyme is measured spectrophotometrically as the degree of development of the colored product (i.e., the rate of color change) over a predetermined time period. […] The following are exemplary methods that may be utilized to determine the inhibitory activity of enzyme inhibitors against A) purified enzymes known to exist in feces, B) specific enzyme activity in the feces itself and C) general enzyme activity in the feces itself. These methods are not intended to be limiting, however, as other methods, other substrates, other inhibitors and the like may be used to test activity against a wide variety of fecal enzymes, as known to one skilled in the art.
For each of the following exemplary Purified Enzyme Methods, Specific Fecal Enzyme Methods, General Fecal Enzymes Method, Purified Lipase activity assay, Fecal Lipase activity assay, Purified Urease activity assay, Fecal Urease activity assay, Purified Amylase activity assay, and Fecal Amylase activity assay, the IC50 for each inhibitor tested may be calculated according to the following equation: […]
where [I] is the inhibitor concentration tested, v is the rate of substrate cleavage in the absence of inhibitor and vi is the rate of substrate cleavage in the presence of inhibitor.
In the methods, v and vi are measured as the change in absorbance (optical density, OD) at a given wavelength/time (e.g., minutes).
To test the efficacy of protease inhibitors against purified leucine aminopeptidase (LAP), 0.05 mL of a putative inhibitor and 0.125 mL of 0.06 U/mL LAP (e.g., Sigma, St. Louis, Mo., catalogue no. L5006) in LAP buffer (50 mM sodium phosphate, pH 7.2) are added to a microcuvette. The cuvette is incubated at 25° C. for 10 minutes. […] The same procedure is repeated without the putative inhibitor. […] The rates, vi and v, and the inhibitor concentration [I] are used to calculate IC50 according to the equation expressed above.

[2] = target: chymotrypsin activity in feces; experiment: Fecal Chymotrypsin Activity (Specific Fecal Enzyme Method); assay type: biochemical; conditions: pooled infant fecal suspension, pH 7.6, 25° C.; read-out: IC50 Specific Fecal Enzyme Methods Chymotryp.
From the text: The following is a general description of a method for obtaining a sample of feces suitable for use in Fecal Protease Methods. However, one skilled in the art will be able to adapt the method to obtain appropriate samples of feces suitable for use in any of the Specific Fecal Protease Methods listed below (i.e., lipase, urease, and amylase) without undue experimentation. […] Pooled infant feces (at least five different samples) are collected in a manner to keep them free of urine and contamination and mixed with water to obtain a weight by weight (w/w) mixture (e.g., 1:50 w/w). This mixture is then mixed thoroughly to obtain a homogeneous suspension by homogenization or sonication. […] (Also, to ensure complete linearity the final absorbance should never exceed 1.5 OD405 units). If the activity of the pooled infant feces is outside this range, it is not possible to accurately determine IC50 values for putative protease inhibitors. However, the range of enzyme activity may be adjusted by increasing or decreasing the dilution factor accordingly for each enzyme. If this is not possible, a different group of subjects should be used to obtain the sample pool. […] The cuvette is mixed by inversion and incubated at 25° C. for 5 minutes. […] The rate of substrate cleavage in the presence of inhibitor (vi) is the slope of a plot relating the excess absorbance (i.e., the absorbance at 405 nm minus the absorbance at 490 nm) versus time. The same procedure is repeated without the putative inhibitor. The rate of substrate cleavage in the absence of inhibitor (v) is the slope of a plot relating the excess absorbance versus time. The rates, vi and v, and the inhibitor concentration [I] are used to calculate IC50 according to the equation expressed above.

[3] = purified leucine aminopeptidase, L-Leucine-p-nitroaniline, pH 7.2, 25° C., read-out: IC50 Purified Enzyme Methods LAP

Molecule: Cc1ccc(S(=O)(=O)N[C@@H](CCCCN)C(=O)CCl)cc1 [TLCK, L-1-chloro-3-[4-tosylamido]-7-amino-2-heptanone-HCl]
IC50 [1]: > 500 µM | IC50 [2]: > 500 µM

IC50 [1, 3]: > 20 µM | IC50 [2]: 0.22 µM
Molecule: Aprotinin

IC50 [1, 3]: > 500 µM | IC50 [2]: > 500 µM
Molecule: N=C(N)c1ccc(N)cc1 [p-Amino-benzamidine]

Molecule: CC(=O)N[C@@H](CC(C)C)C(=O)N[C@@H](CC(C)C)C(=O)N[C@H](C=O)CCCNC(=N)N [Leupeptin]
IC50 [1, 3]: > 500 µM | IC50 [2]: > 500 µM

Molecule: CC(C)C[C@H](NC(=O)[C@@H](NC(=O)N[C@@H](Cc1ccccc1)C(=O)O)[C@@H]1CCN=C(N)N1)C(=O)N[C@H](C=O)Cc1ccccc1 [Chymostatin]
IC50 [1, 3]: > 500 µM | IC50 [2]: 0.02 µM

Molecule: CC(C)CC(=O)N[C@H](C(=O)N[C@H](C(=O)N[C@@H](CC(C)C)[C@@H](O)CC(=O)N[C@@H](C)C(=O)N[C@@H](CC(C)C)[C@@H](O)CC(=O)O)C(C)C)C(C)C [Pepstatin A] (Isovaleryl-VV[Sta]A[Sta]-OH)
IC50 [1, 3]: > 500 µM | IC50 [2]: 300 µM

IC50 [1, 3]: > 500 µM | IC50 [2]: > 300 µM
Molecule: CC1(C)[C@@H](O[C@H]2O[C@H](C(=O)O)[C@@H](O)[C@H](O)[C@H]2O[C@@H]2O[C@H](C(=O)O)[C@@H](O)[C@H](O)[C@H]2O)CC[C@]2(C)[C@H]3C(=O)C=C4[C@@H]5C[C@@](C)(C(=O)O)CC[C@]5(C)CC[C@@]4(C)[C@]3(C)CC[C@@H]12 [Glycyrrhizic Acid]

Molecule: N=C(N)c1ccc(OCCCCCCOc2ccc(C(=N)N)cc2)cc1 [Hexamidine diisethionate]
IC50 [1, 3]: 256 µM | IC50 [2]: > 1000 µM

IC50 [1, 3]: > 10 µM | IC50 [2]: 0.06 µM
B1: Soybean trypsin inhibitor: plant-derived trypsin inhibitor (protein, UniProt P01070 25-205, looked up)
Trypsin inhibitor A: DFVLDNEGNPLENGGTYYILSDITAFGGIRAAPTGNERCPLTVVQSRNELDKGIGTIISSPYRIRFIAEGHPLSLKFDSFAVIMLCVGIPTEWSVVEDLPEGPAVKIGENKDAMDGWFRLERVSDDEFNNYKLVFCPQQAEDDKCGDIGISIDHDDGTRRLVVSKNKPLVVQFQKLDKESL
